We go through nine compounds from PubChem BioAssay (NCI).

Where “and” joins values, the source holds several entries; their conditions need not be identical. Identical values can stand only once.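 Results reflect a 48-hour exposure of cells in 96-well plates to compound at five concentrations. GI50 marks 50% less growth. Definition used: TGI = concentration required for complete inhibition of growth.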

Holding throughout (assay): growth of human tumour cells (NCI), 48 h
In assay [1] the test system is A498 renal.
Assay [2] deals with CCRF-CEM leukemia.
For assay [3], the system named is M14 melanoma.
The subject of assay [4] is NCI-H226 lung.
The subject of assay [5] is OVCAR-8 ovarian.
Assay [6] concerns SF-539 CNS.
Assay [7] has as its system SK-MEL-2 melanoma.
The subject of assay [8] is SK-MEL-5 melanoma.

In the case of `Cc1csc(-c2nnc(Nc3ccc(Oc4ncccc4-c4ccnc(N)n4)cc3)c3ccccc23)c1`, the GI50 in assay [1] is over 100 µM; in assay [2], 0.234 µM; in assay [3], 1.51 µM; in assay [4], over 63.8 µM; in assay [6] it was over 100 µM; in assay [7] it was 2.71 µM. For the same compound, in assay [8], the GI50 was 71.5 µM. Besides, the TGI in assay [1], in assay [2], in assay [3], in assay [4], in assay [5] and in assay [6] was over 100 µM in each case. Moreover, the TGI was over 26.9 µM in assay [7] and over 100 µM in assay [8].

In the case of `COc1ccc2nc3cc(Cl)ccc3c(NCCNCC(C)O)c2c1` (stereo not drawn), the GI50 in assay [1] is 1.28 µM; in assay [2] it was 2.46 µM; in assay [3], 1.68 µM; in assay [4], 2.3 µM; in assay [5] it was 1.94 µM; in assay [6] it was 1.65 µM. The GI50 is 2.08 µM in assay [7] and 1.68 µM in assay [8]. Further, the TGI was determined as 2.84 µM in assay [1]; 8.66 µM in assay [2]; 3.6 µM in assay [3]; 6.04 µM in assay [4]; 7.65 µM in assay [5]; 3.51 µM in assay [6]. In addition, the TGI in assay [7] turned out to be 4.26 µM; in assay [8], 3.06 µM.

Turning to `CN1CC[C@@H](NC(=O)Nc2ccc(C#N)cc2)C[C@@H]1c1nc2ccccc2[nH]1`, the GI50 in assay [1] is over 27.4 µM; in assay [2], 97.4 µM; in assay [3], over 100 µM; in assay [4] it was over 100 µM; in assay [5] it was over 100 µM; in assay [6], over 100 µM. The values for the GI50 in assay [7] and in assay [8] were over 100 µM and over 57.7 µM, respectively. The TGI was over 65.7 µM in assay [1]; over 100 µM in assay [2]; over 100 µM in assay [3]; over 100 µM in assay [4]; over 100 µM in assay [5]; over 100 µM in assay [6]. The TGI in assay [7] and in assay [8] was over 100 µM in each case.

On to `Nc1n[nH]c2cc(F)c([C@@H]3Nc4ccc5[nH]ncc5c4[C@H]4C5CCC(C5)[C@@H]34)cc12` (stereo partly drawn), for which the GI50 was 0.0787 µM in assay [1]; 0.176 µM in assay [2]; 0.147 µM in assay [3]; 0.192 µM in assay [4]; 0.193 µM in assay [5]; 0.115 µM in assay [6]. Moreover, the GI50 in assay [7] is 0.798 µM; in assay [8], 0.128 µM. In addition, the TGI was 0.288 µM in assay [1]; over 50 µM in assay [2]; 12.3 µM in assay [3]; 3.38 µM in assay [4]; over 30.6 µM in assay [5]; 0.322 µM in assay [6]. In addition, the TGI worked out at 20.1 µM in assay [7] and 0.355 µM in assay [8].

On to `COc1cccc(-c2nc(-c3ccc(NC(=O)OC(C)C)cc3)[nH]c2-c2ccnc(Br)c2)c1`, for which the GI50 was 1.2 µM in assay [1]; 2.22 µM in assay [2]; 3.06 µM in assay [3]; 2.46 µM in assay [4]; 3.12 µM in assay [5]; 1.53 µM in assay [6]. In addition, the GI50 in assay [7] is 2.33 µM; in assay [8] it was 1.88 µM. Further, the TGI in assay [1] is 6.29 µM; in assay [2] it was over 100 µM; in assay [3], over 100 µM; in assay [4], 87.5 µM; in assay [5], over 100 µM; in assay [6] it was 5.83 µM. Moreover, the TGI was 7.03 µM in assay [7] and 3.65 µM in assay [8].

For the compound `COc1ccc(C2[C@@H](c3ccccc3)C(=O)N2c2cc(OC)c(OC)c(OC)c2)cc1F` (stereo partly drawn), the GI50 was 0.027 µM in assay [1]; 0.0361 µM in assay [2]; 0.0226 µM in assay [3]; 0.035 µM in assay [4]; 0.0344 µM in assay [5]; 0.0234 µM in assay [6]. The values for the GI50 in assay [7] and in assay [8] were 0.0354 µM and 0.0271 µM, respectively. Further, the TGI is 0.0861 µM in assay [1]; over 100 µM in assay [2]; 0.0672 µM in assay [3]; over 100 µM in assay [4]; over 100 µM in assay [5]; 0.0706 µM in assay [6]. The TGI in assay [7] is over 100 µM; in assay [8] it was 0.075 µM.

As for `O=C(CCCSc1nc(-c2ccccc2)cc(-c2ccccc2)n1)NO`, the GI50 in assay [1] was 1.12 µM; in assay [2], 0.368 µM; in assay [3] it was 0.927 µM; in assay [4], 1.19 µM; in assay [5] it was 0.484 µM; in assay [6], 1.92 µM. For the same compound, the GI50 in assay [7] was 2.35 µM; in assay [8], 1.41 µM. Besides, the TGI stood at 3.1 µM in assay [1]; 10.6 µM in assay [2]; 5.29 µM in assay [3]; 9.28 µM in assay [4]; 18.3 µM in assay [5]; 7.09 µM in assay [6]. Also, the TGI in assay [7] was 12.6 µM; in assay [8], 3.17 µM.

In the case of `C=C1C(=O)O[C@H]2[C@H]1CC/C(COC(=O)NCc1ccc(Cn3c(=O)sn(-c4ccc(OC)cc4)c3=O)cc1)=C\CC[C@@]1(C)O[C@@H]21`, the GI50 is 5.65 µM in assay [1]; 0.561 µM in assay [2]; 2.19 µM in assay [3]; 12.9 µM in assay [4]; 2.37 µM in assay [5]; 1.96 µM in assay [6]. In addition, the figures for the GI50 in assay [7] and in assay [8] were 3.19 µM and 12 µM, respectively. Besides, the TGI amounted to 17.8 µM in assay [1]; 3.05 µM in assay [2]; 5.65 µM in assay [3]; 30.7 µM in assay [4]; 5.82 µM in assay [5]; 4.15 µM in assay [6]. Further, the TGI in assay [7] turned out to be 9.46 µM; in assay [8] it was 24.8 µM.

For `O=C1NC(=NC(CO)Cc2ccccc2)S/C1=C\c1ccc2ncccc2c1` (stereo not drawn), the GI50 in assay [1] was > 15.2 µM and 1.96 µM; in assay [2], 10.6 µM and 4.89 µM; in assay [3] it was 14 µM and 7.08 µM; in assay [4], > 25 µM and 5.55 µM; in assay [5] it was > 21.1 µM and 5.24 µM; in assay [6], 11.9 µM and 2.73 µM. The GI50 is 10.1 µM and 4.32 µM in assay [7]; > 25 µM and 5.17 µM in assay [8]. Besides, the TGI in assay [1] is > 25 µM and 7.67 µM; in assay [2] it was over 25 µM; in assay [3] it was over 25 µM; in assay [4], over 25 µM; in assay [5] it was over 25 µM; in assay [6] it was > 25 µM and 10.1 µM. Moreover, the TGI in assay [7] is > 25 µM and 12.4 µM; in assay [8] it was > 25 µM and 12.3 µM.
